Counter-ions that a name gives are not always drawn.
Row | melting point | SMILES
1 | 52 °C | CN1CCN(c2cccc3c2CN(C(=O)c2ccc(Cl)cc2)CC3)CC1 (as salt: salt) [Example 10, (4-Chloro-phenyl)-[8-(4-methyl-piperazin-1-yl)-3,4-dihydro-1H-isoquinolin-2-yl]-methanone]
2 | 66 °C | CN1CCN(c2cccc3c2CN(C(=O)Cc2ccc(Cl)c(Cl)c2)CC3)CC1 [Example 12, 2-(3,4-Dichloro-phenyl)-1-[8-(4-methyl-piperazin-1-yl)-3,4-dihydro-1H-isoquinolin-2-yl]-ethanone]
3 | 129 °C (dec.) | CN1CCN(c2cccc3c2CN(C(=O)c2ccc(N4CCOCC4)cc2)CC3)CC1 [Example 11, [8-(4-Methyl-piperazin-1-yl)-3,4-dihydro-1H-isoquinolin-2-yl]-(4-morpholin-4-yl-phenyl)-methanone]

The remaining lines, values behind:

Row | SMILES | melting point
4 | CN1CCN(c2cccc3c2CN(C(=O)Cc2ccc(Cl)cc2Cl)CC3)CC1 (as salt: salt) [Example 6, 2-(2,4-Dichloro-phenyl)-1-[8-(4-methyl-piperazin-1-yl)-3,4-dihydro-1H-isoquinolin-2-yl]-ethanone] | 85 °C
5 | CN1CCN(c2cccc3c2CN(C(=O)Cc2cccnc2)CC3)CC1 (as salt: salt) [Example 9, 1-[8-(4-Methyl-piperazin-1-yl)-3,4-dihydro-1H-isoquinolin-2-yl]-2-pyridin-3-yl-ethanone] | 56 °C
6 | CN1CCN(c2cccc3c2CN(C(=O)CCc2ccc(Cl)cc2)CC3)CC1 (as salt: salt) [Example 2, 3-(4-Chloro-phenyl)-1-[8-(4-methyl-piperazin-1-yl)-3,4-dihydro-1H-isoquinolin-2-yl]-propan-1-one] | 84 °C
7 | COc1ccc(CC(=O)N2CCc3cccc(N4CCN(C)CC4)c3C2)cc1 (as salt: salt) [Example 3, 2-(4-Methoxy-phenyl)-1-[8-(4-methyl-piperazin-1-yl)-3,4-dihydro-1H-isoquinolin-2-yl]-ethanone] | 63 °C
8 | CN1CCN(c2cccc3c2CN(C(=O)Cc2ccccc2Cl)CC3)CC1 (as salt: salt) [Example 7, 2-(2-Chloro-phenyl)-1-[8-(4-methyl-piperazin-1-yl)-3,4-dihydro-1H-isoquinolin-2-yl]-ethanone] | 54 °C
9 | CN1CCN(c2cccc3c2CN(C(=O)CC2CC2)CC3)CC1 (as salt: salt) | 66 °C

Reference: patent US7101881B2, “Tetrahydroquinolines” (Pfizer Inc, priority 2003, dated 2006)
